Patent US8044051B2, “Methods and compositions for the production of high concentration alloxazine solutions” (CaridianBCT Biotechnologies, LLC, priority 2006, dated 2011)
Values joined by “and” are separate entries in the source; they are usually repeats but may differ in a detail not shown here. Equal entries are not always repeated.

What was measured:
[1] = Concentration stability of riboflavin preparations over time (Example 4); format: physicochemical; conditions: stored at ambient temperature and pressure
Method: The concentration stability of riboflavin was measured over a period of time to determine its stability.
Various preparation of riboflavin were prepared.
Samples 1-3 were prepared by adding 10 mg riboflavin to 100 mL saline, heating at 37° C. for 30 minutes, mixing on a stir-plate for 20 minutes, and filtering through a 20 micron filter.
Sample 4 was made by adding 10 mg riboflavin to 100 mL saline, heating, and filtering through a 0.2 micron filter.
Sample 5 was prepared by adding 20 mg riboflavin to 100 mL saline, heating while mixing for 30 minutes, and filtering through a 0.2 micron filter.
Sample 6 was prepared by adding 5 mg riboflavin to 10 mL saline, heating in a water bath at 60° C. for 30 minutes, shaking vigorously for 30 seconds, and filtering through a 0.2 micron filter.
The concentration stability of riboflavin compositions are shown for each preparation. The riboflavin concentration of each experimental heat treated riboflavin sample is above that of the unheated control sample. Further, the concentration remains stable over a period of time when stored at ambient temperature and pressure.

[2] = Saturation point / solubility of riboflavin in aqueous medium at ambient temperature and pressure
Method: An amount of alloxazine is measured for combination with a solvent such as an aqueous medium or a combination of aqueous medium and a non-polar solvent.

[3] = Riboflavin concentration by absorbance after heated mixing in saline and filtration (Example 3); format: physicochemical
Method: Riboflavin (approximately 70 mg) was added to saline (approximately 200 mL) and continuously mixed on a hot plate. The container was covered, and the solution was mixed for 40 minutes. the solution was filtered through a 0.2 micron filter. The filtered solution was diluted 1:10 and its absorbance was measured.
3 mL of the riboflavin and 147 mL saline were combined. […] 30 mL of the riboflavin/saline solution was transferred to each of four 75 cm^2 flasks, which were irradiated two at a time.

Cc1cc2nc3c(=O)[nH]c(=O)nc-3n(C[C@H](O)[C@H](O)[C@H](O)CO)c2cc1C [riboflavin derivative alpha]
concentration stability over time [1]: stable over time
solubility compared to untreated riboflavin ([2]; room temperature): increased solubility

Cc1cc2nc3c(=O)[nH]c(=O)nc-3n(C[C@H](O)[C@H](O)[C@H](O)CO)c2cc1C [riboflavin, 7,8-dimethyl-10-ribityl isoalloxazine]
concentrations of riboflavin solutions ([3]; Example 3 riboflavin solutions): 515 µM and 528 µM
riboflavin decomposition (spectrum) ([3]; after heated mixing 40 minutes and filtration): no evidence of riboflavin decomposition
riboflavin concentration ([3]; approx. 70 mg in approx. 200 mL saline, mixed on hot plate 40 minutes, 0.2 micron filtered, absorbance of 1:10 dilution): 540 µM
saturation point concentration of riboflavin ([2]; 22° C. and 1 atmosphere pressure, aqueous medium, untreated): 114 µM
